From patent US6858591B2, “Antibiotic AA 896 analogs” (Wyeth Holdings Corporation, priority 2001, dated 2005)
Values after ≈ are worked out from the molar mass of the structure shown. Like-named read-outs stand apart in the source and are kept apart here.

Experiments:
Assay in all cases: In vitro MIC, broth dilution
Format in all cases: cell-based
[1] = test system: E. coli GC 4559; conditions: Escherichia coli, GC4559; E. coli GC 4559; read-out: MIC
[2] = test system: E. coli GC 4560; conditions: Escherichia coli, GC4560; E. coli GC 4560; read-out: MIC
[3] = test system: E. coli GC 3226; conditions: Escherichia coli, GC3226; E. coli GC 3226; read-out: MIC
[4] = test system: S. marcescens GC 4077; conditions: Serratia marcescens, GC4077; S. marcescens GC 4077; read-out: MIC
[5] = test system: C. albicans GC 3066; conditions: Candida albicans, GC3066; C. albicans GC 3066; read-out: MIC
[6] = test system: M. morganii GC 4531; conditions: Morganella morganii, GC4531; M. morganii GC 4531; read-out: MIC
[7] = test system: K. pneumoniae GC 4534; conditions: Klebsiella pneumoniae, GC4534; K. pneumoniae GC 4534; read-out: MIC
[8] = test system: E. cloacae GC 3783; conditions: Enterobacter cloacae, GC3783; E. cloacae GC 3783; read-out: MIC
[9] = test system: P. aeruginosa GC 4532; conditions: Pseudomonas aeruginosa, GC4532; P. aeruginosa GC 4532; read-out: MIC
[10] = test system: CNS GC 4537
Summary of the method: (§1)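 MIC read as the lowest antibiotic level preventing growth after 18 hours at 35° C., ambient air. Tested by NCCLS broth dilution in Mueller-Hinton II across 64-0.06 μg/ml with 5×10^5 CFU/ml inoculum.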

[11] = test system: CNS GC 4538
Summary of the method: as §1

[12] = test system: CNS GC 4547
Summary of the method: as §1

[13] = test system: E. faecalis GC 2242; conditions: Enterococcus faecalis, GC2242; E. faecalis GC 2242; read-out: MIC
Summary of the method: as §1

[14] = test system: E. faecalis GC 4555; conditions: Enterococcus faecalis, GC4555; E. faecalis GC 4555; read-out: MIC
Summary of the method: as §1

[15] = test system: E. faecalis GC 842; conditions: Enterococcus faecalis, GC842; E. faecalis GC 842; read-out: MIC
Summary of the method: as §1

[16] = test system: S. aureus GC 1131; conditions: Staphylococcus aureus, GC1131; S. aureus GC 1131; read-out: MIC
Summary of the method: as §1

[17] = test system: S. aureus GC 2216; conditions: Staphylococcus aureus, GC2216; S. aureus GC 2216; read-out: MIC
Summary of the method: as §1

[18] = test system: S. aureus GC 4536; conditions: Staphylococcus aureus, GC4536; S. aureus GC 4536; read-out: MIC
Summary of the method: as §1

[19] = test system: E. coli GC 2203; conditions: Escherichia coli, GC2203; E. coli GC 2203; read-out: MIC
[20] = test system: P. aeruginosa GC 2214; conditions: Pseudomonas aeruginosa, GC2214; P. aeruginosa GC 2214; read-out: MIC

Row | Structure (SMILES) | MIC [1] | MIC [2] | MIC [3] | MIC [4] | MIC [5] | MIC [6] | MIC [7] | MIC [8] | MIC [9] | MIC ([10]; CNS GC 4537, read-out: MIC) | MIC ([11]; CNS GC 4538, read-out: MIC) | MIC ([12]; CNS GC 4547, read-out: MIC) | MIC [13] | MIC [14] | MIC [15] | MIC [16] | MIC [17] | MIC [18] | MIC [19] | MIC [20] | also measured
1 | COc1ccc(Cn2c(=O)ccn([C@@H]3OC([C@H](O)[C@H](NCCCNC(=O)[C@@H](N)[C@H](C)O)C(=O)OC(C)(C)C)[C@@H](O)[C@H]3O)c2=O)cc1 (stereo partly drawn) [Example 45, tert-Butyl (2S,3R)-2-[(3-{[(2S,3S)-2-amino-3-hydroxybutanoyl]amino}propyl)amino]-3-[(3S,4R,5R)-3,4-dihydroxy-5-(3-(4-methoxybenzyl)-2,4-dioxo-3,4-dihydro-1(2H)-pyrimidinyl)-tetrahydro-2-furanyl]-3-hydroxypropanoate] | > 128 µg/mL | > 128 µg/mL | > 128 µg/mL | > 128 µg/mL | 128 µg/mL (≈ 196 µM) | 128 µg/mL (≈ 196 µM) | > 128 µg/mL | > 128 µg/mL | 128 µg/mL (≈ 196 µM) | > 128 µg/mL | > 128 µg/mL | > 128 µg/mL | 128 µg/mL (≈ 196 µM) | > 128 µg/mL | > 128 µg/mL | > 128 µg/mL | > 128 µg/mL | > 128 µg/mL | > 128 µg/mL | 128 µg/mL (≈ 196 µM) | –
2 | COc1ccc(Cn2c(=O)ccn([C@@H]3OC([C@H](O)[C@H](NCCCNC(=O)[C@@H](NC(=O)[C@H](CCCNC(=N)N[N+](=O)[O-])NC(=O)N[C@H](C(=O)OCc4ccccc4)C(C)C)C(C)O)C(=O)O)[C@@H](O)[C@H]3O)c2=O)cc1 (stereo partly drawn) [Example 47, (4S,8S,11S,18S)-18-[(R)-[(3S,4R,5R)-3,4-Dihydroxy-5-(3-(4-methoxybenzyl)-2,4-dioxo-3,4-dihydro-1(2H)-pyrimidinyl)tetrahydro-2-furanyl](hydroxy)methyl]-8-(3-{[(2,2-dioxido-2lambda˜1˜-diazanyl)(imino)methyl]amino}propyl)-11-[(1S)-1-hydroxyethyl]-4-isopropyl-3,6,9,12-tetraoxo-1-phenyl-2-oxa-5,7,10,13,17-pentaazanonadecan-19-oic acid] | > 128 µg/mL | 128 µg/mL (≈ 124 µM) | > 128 µg/mL | 128 µg/mL (≈ 124 µM) | 128 µg/mL (≈ 124 µM) | 128 µg/mL (≈ 124 µM) | > 128 µg/mL | > 128 µg/mL | 128 µg/mL (≈ 124 µM) | – | – | – | 64 µg/mL (≈ 62.1 µM) | 128 µg/mL (≈ 124 µM) | 128 µg/mL (≈ 124 µM) | > 128 µg/mL | > 128 µg/mL | > 128 µg/mL | > 128 µg/mL | > 128 µg/mL | MIC [10]: > 128 µg/mL; MIC [11]: > 128 µg/mL; MIC [12]: > 128 µg/mL
3 | COc1ccc(Cn2c(=O)ccn([C@@H]3OC([C@H](O)[C@H](NCCCNC(=O)[C@@H](N)C(C)O)C(=O)O)[C@@H](O)[C@H]3O[Si](C)(C)C(C)(C)C)c2=O)cc1 (some centres unmarked) [Example 48] | > 128 µg/mL | 128 µg/mL (≈ 180 µM) | > 128 µg/mL | 128 µg/mL (≈ 180 µM) | 128 µg/mL (≈ 180 µM) | 128 µg/mL (≈ 180 µM) | > 128 µg/mL | > 128 µg/mL | 128 µg/mL (≈ 180 µM) | > 128 µg/mL | > 128 µg/mL | 128 µg/mL (≈ 180 µM) | 64 µg/mL (≈ 90.2 µM) | 128 µg/mL (≈ 180 µM) | 128 µg/mL (≈ 180 µM) | > 128 µg/mL | > 128 µg/mL | > 128 µg/mL | > 128 µg/mL | > 128 µg/mL | –
4 | COc1ccc(Cn2c(=O)ccn([C@@H]3OC([C@H](O)[C@H](NCCCNC(=O)[C@H](CC(C)C)NC(=O)[C@H](CCCNC(=N)N[N+](=O)[O-])NC(=O)N[C@H](C(=O)OCc4ccccc4)C(C)C)C(=O)O)[C@@H](O)[C@H]3O)c2=O)cc1 (stereo partly drawn) [Example 49, (4S,8S,11S,18S)-18-[(R)-[(3S,4R,5R)-3,4-Dihydroxy-5-(3-(4-methoxybenzyl)-2,4-dioxo-3,4-dihydro-1(2H)-pyrimidinyl)tetrahydro-2-furanyl](hydroxy)methyl]-8-(3-{[(2,2-dioxido-2lambda˜1˜-diazanyl)(imino)methyl]amino}propyl)-11-isobutyl-4-isopropyl-3,6,9,12-tetraoxo-1-phenyl-2-oxa-5,7,10,13,17-pentaazanonadecan-19-oic acid] | > 128 µg/mL | > 128 µg/mL | > 128 µg/mL | > 128 µg/mL | 128 µg/mL (≈ 123 µM) | 128 µg/mL (≈ 123 µM) | > 128 µg/mL | > 128 µg/mL | 128 µg/mL (≈ 123 µM) | – | – | – | 128 µg/mL (≈ 123 µM) | > 128 µg/mL | 128 µg/mL (≈ 123 µM) | > 128 µg/mL | > 128 µg/mL | > 128 µg/mL | > 128 µg/mL | 128 µg/mL (≈ 123 µM) | MIC [10]: > 128 µg/mL; MIC [11]: > 128 µg/mL; MIC [12]: > 128 µg/mL
5 | COc1ccc(Cn2c(=O)ccn([C@@H]3OC([C@H](O)[C@H](NCCCNC(=O)[C@H](CC(C)C)NC(=O)[C@H](CCCNC(=N)N)NC(=O)N[C@H](C(=O)O)C(C)C)C(=O)O)[C@@H](O)[C@H]3O)c2=O)cc1 (stereo partly drawn) [Example 50, (2S,6S,9S,16S)-6-(3-{[Amino(imino)methyl]amino}propyl)-16-[(R)-[(3S,4R,5R)-3,4-dihydroxy-5-(3-(4-methoxybenzyl)-2,4-dioxo-3,4-dihydro-1(2H)-pyrimidinyl)tetrahydro-2-furanyl](hydroxy)-methyl]-9-isobutyl-2-isopropyl-4,7,10-trioxo-3,5,8,11,15-pentaazaheptadecane-1,17-dioic acid] | > 128 µg/mL | > 128 µg/mL | > 128 µg/mL | > 128 µg/mL | 128 µg/mL (≈ 141 µM) | 128 µg/mL (≈ 141 µM) | > 128 µg/mL | > 128 µg/mL | 128 µg/mL (≈ 141 µM) | > 128 µg/mL | > 128 µg/mL | > 128 µg/mL | 128 µg/mL (≈ 141 µM) | > 128 µg/mL | > 128 µg/mL | > 128 µg/mL | > 128 µg/mL | > 128 µg/mL | > 128 µg/mL | 128 µg/mL (≈ 141 µM) | –

Continued, in another order:

Row | MIC [1] | MIC [2] | MIC [3] | MIC [4] | MIC [5] | MIC [6] | MIC [7] | MIC [8] | MIC [9] | MIC ([10]; CNS GC 4537, read-out: MIC) | MIC ([11]; CNS GC 4538, read-out: MIC) | MIC ([12]; CNS GC 4547, read-out: MIC) | MIC [13] | MIC [14] | MIC [15] | MIC [16] | MIC [17] | MIC [18] | MIC [19] | MIC [20] | Structure (SMILES) | also measured
6 | > 128 µg/mL | 128 µg/mL (≈ 160 µM) | > 128 µg/mL | > 128 µg/mL | 128 µg/mL (≈ 160 µM) | 128 µg/mL (≈ 160 µM) | > 128 µg/mL | > 128 µg/mL | 128 µg/mL (≈ 160 µM) | > 128 µg/mL | 128 µg/mL (≈ 160 µM) | > 128 µg/mL | 128 µg/mL (≈ 160 µM) | 128 µg/mL (≈ 160 µM) | 128 µg/mL (≈ 160 µM) | > 128 µg/mL | > 128 µg/mL | > 128 µg/mL | > 128 µg/mL | 128 µg/mL (≈ 160 µM) | COc1ccc(Cn2c(=O)ccn([C@@H]3OC([C@H](O)[C@H](NCCCNC(=O)[C@H](CC(C)C)NC(=O)OCc4ccccc4)C(=O)OC(C)(C)C)[C@@H](O)[C@H]3O)c2=O)cc1 (stereo partly drawn) [Example 51, tert-Butyl (5S,12S)-12-[(R)-[(3S,4R,5R)-3,4-dihydroxy-5-(3-(4-methoxybenzyl)-2,4-dioxo-3,4-dihydro-1(2H)-pyrimidinyl)tetrahydro-2-furanyl](hydroxy)methyl]-5-isobutyl-3,6-dioxo-1-phenyl-2-oxa-4,7,11-triazatridecan-13-oate] | –
7 | > 128 µg/mL | 128 µg/mL (≈ 173 µM) | > 128 µg/mL | 128 µg/mL (≈ 173 µM) | 128 µg/mL (≈ 173 µM) | 128 µg/mL (≈ 173 µM) | > 128 µg/mL | > 128 µg/mL | 128 µg/mL (≈ 173 µM) | > 128 µg/mL | > 128 µg/mL | > 128 µg/mL | 128 µg/mL (≈ 173 µM) | 128 µg/mL (≈ 173 µM) | 128 µg/mL (≈ 173 µM) | > 128 µg/mL | > 128 µg/mL | > 128 µg/mL | > 128 µg/mL | 128 µg/mL (≈ 173 µM) | COc1ccc(Cn2c(=O)ccn([C@@H]3OC([C@H](O)[C@H](NCCCNC(=O)[C@H](CC(C)C)NC(=O)OCc4ccccc4)C(=O)O)[C@@H](O)[C@H]3O)c2=O)cc1 (stereo partly drawn) [Example 52, (5S,12S)-12-[(R)-[(3S,4R,5R)-3,4-Dihydroxy-5-(3-(4-methoxybenzyl)-2,4-dioxo-3,4-dihydro-1(2H)-pyrimidinyl)tetrahydro-2-furanyl](hydroxy)methyl]-5-isobutyl-3,6-dioxo-1-phenyl-2-oxa-4,7,11-triazatridecan-13-oic acid] | –
